Test results reported in patent US10323018B2 (Millennium Pharmaceuticals, Inc., priority 2015, dated 2019).

Columns and labels:
[1] = target: hNAMPT protein (Homo sapiens (Human), UniProt P43490); test: NAMPT enzyme assay (TR-FRET/HTRF with BodiPY ligand); assay type: binding; details: for inhibition at 1 µM: NAMPT inhibition at compound concentration 1 μM, read-out: Percent Inhibition; for IC50: NAMPT inhibition, IC50 range class
Source text: As discussed above, the invention provides compounds that are useful as inhibitors of the enzyme NAMPT. The NAMPT inhibition of a compound of the invention can be measured using a variety of methods known in the art. For example, the ability of a compound of the invention to inhibit NAMPT enzyme activity can be measured using a homogeneous time resolved fluorescence (HTRF) assay using hNAMPT protein and anti 6His-Tb in buffer treated with a compound of the invention (or control e.g., DMSO) and BodiPY ligand. The TR-FRET signal can be measured using a high throughput microplate reader (e.g., Pherastar). Excitation can be carried out at 320 nm. The percent inhibition value at a single concentration of compound of the invention can be calculated relative to a control treated sample. A concentration response curve can be generated for each compound of the invention and the curve fitted to generate an IC50 value. […] To measure the inhibition of NAMPT activity hNAMPT protein stock and anti 6His-Tb (Cisbio; Cat. No. […]TLB) is diluted to 3× final concentration with assay buffer (50 mM Tris-HCl (pH 7.5), 1 mM DTT, 100 mM NaCl, 10 mM MgCl2, 0.005% Tween 20). To this solution is added a test compound or vehicle control (DMSO) and BodiPY ligand (structure below). The plate is shaken for 1-2 min sealed and incubated for 1 h at rt in the dark. The TR-FRET signal is measured using BMG Pherastar (Lanthascreen protocol on BMG Pherastar). Excitation was carried out at 320 nm, and the ratio of emission of BodiPY (520 nm) to terbium (486 nm) was determined. Concentration response curves are generated by calculating the excitation increase in test compound-treated samples relative to DMSO-treated controls. For the assay method described above, test compound percent inhibition values at a single concentration are calculated relative to control (DMSO) treated samples. Compound concentration response curves are fitted to generate IC50 values from those curves. One skilled in the art will appreciate that these values generated either as percentage inhibition at a single concentration or IC50 values are subject to experimental variation.

[2] = tested on: PC3 cells; test: PC3 growth inhibition (Cell-titer glo, 72 hours); assay type: cell-based; details: Homo sapiens, PC-3, 72 h, read-out: Percent Viability, PC3 cells, compound concentration 1.667 μM, 72 hours
Procedure: The invention also provides compounds that inhibit cell growth. The ability of a compound of the invention to inhibit the growth of cells can be measured using a variety of methods known in the art. For example, the ability of a compound of the invention to inhibit the growth of PC3 cells can be measured. PC3 cells can be plated and incubated overnight under CO2. For each measurement, a compound of the invention (or vehicle e.g., DMSO) can be diluted with AIM serum free medium and added to the cell plate. The cell plate can then be incubated for 72 h under CO2. Cell-titer glo solution can be added and the plates can be incubated protected from light and the amount of luminescences can be measured. Concentration response curves can be generated by calculating the luminescence increase in test compound treated samples relative to DMSO-treated controls. Percentage remaining viability values at a single concentration can be measured. Growth inhibition (GI50) or cell viability (LD50) values can be determined from thoses curves. In one embodiment, compounds of the invention have a percent viability in PC3 line @ 1.667 uM of <1%. In one embodiment, compounds of the invention have a percent viability in PC3 line @ 1.667 uM of <2%. In one embodiment, compounds of the invention have a percent viability in PC3 line @ 1.667 uM of <3%. In one embodiment, compounds of the invention have a percent viability in PC3 line @ 1.667 uM of <4%. In one embodiment, compounds of the invention have a percent viability in PC3 line @ 1.667 uM of <5%. In one embodiment, compounds of the invention have a percent viability in PC3 line @ 1.667 uM of <10%. In one embodiment, compounds of the invention have a percent viability in PC3 line @ 1.667 uM of <50%.
To measure PC3 growth inhibition, PC3 cells that were maintained in RPMI1640 growth medium (Life Technologies; Cat. No. 11875) at 37° C. under 5% CO2 are trypsinized and diluted at a density of 8×10^4 cells/ml, 25 ul per well of cells and plated in 384-well black tissue culture plate. The cells are incubated overnight at 37° C. under 5% CO2. For each measurement, a test compound or vehicle DMSO control is diluted with AIM serum free medium and added to the cell plate. The cell plate is incubated for 72 hours at 37° C. under 5% CO2. 25 μl Cell-titer glo solution (Promega; Cat. No. G8462) is added and the cell plates are incubated for 10 minutes protected from light. The luminescence is measured. Concentration response curves are generated by calculating the luminescence increase in test compound-treated samples relative to DMSO-treated controls. Percentage remaining viability values at a single concentration, growth inhibition (GI50) or cell viability (LD50) values are determined from those curves. One skilled in the art will appreciate that these values are subject to experimental variation.

Sequence of hNAMPT protein (P43490 whole entry): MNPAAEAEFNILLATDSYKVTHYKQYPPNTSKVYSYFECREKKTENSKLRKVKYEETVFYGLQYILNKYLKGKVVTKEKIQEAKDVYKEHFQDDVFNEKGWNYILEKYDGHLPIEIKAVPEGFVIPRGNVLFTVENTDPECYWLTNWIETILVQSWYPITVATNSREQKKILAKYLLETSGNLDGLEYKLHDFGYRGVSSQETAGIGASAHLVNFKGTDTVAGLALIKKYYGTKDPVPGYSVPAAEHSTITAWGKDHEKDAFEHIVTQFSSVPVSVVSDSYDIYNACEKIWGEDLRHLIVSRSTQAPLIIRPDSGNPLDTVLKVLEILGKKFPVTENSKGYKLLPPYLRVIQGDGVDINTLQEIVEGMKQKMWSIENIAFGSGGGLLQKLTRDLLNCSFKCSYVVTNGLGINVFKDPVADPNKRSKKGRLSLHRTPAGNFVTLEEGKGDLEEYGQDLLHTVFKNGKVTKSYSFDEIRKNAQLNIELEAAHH

Structure (SMILES)	inhibition at 1 µM [1] [%]	IC50 [1] [nM]	viability at 1.667 µM [2] [%]
CCOc1cc(-c2ccc(=O)n(C)c2)nc2cc(C(=O)NCCc3[nH]nnc3C)ccc12 [Compound I-76, 4-ethoxy-2-(1-methyl-6-oxo-1,6-dihydropyridin-3-yl)-N-[2-(4-methyl-1H-1,2,3-triazol-5-yl)ethyl]quinoline-7-carboxamide]	93	50 to 100	11
CCCc1nc(-c2ccc(Cl)cc2)nc2cc(C(=O)NCc3nc4ccncc4[nH]3)ccc12 [Compound I-9, 2-(4-chlorophenyl)-N-(3H-imidazo[4,5-c]pyridin-2-ylmethyl)-4-propylquinazoline-7-carboxamide]	93	< 10	1
CCOc1cc(-c2ccc(F)cc2)nc2cc(C(=O)NCCCc3n[nH]nc3C)ccc12 [Compound I-133, 4-ethoxy-2-(4-fluorophenyl)-N-[3-(5-methyl-2H-1,2,3-triazol-4-yl)propyl]quinoline-7-carboxamide]	> 99	< 10	2
CCOc1cc(-c2ccc(F)cc2)nc2cc(C(=O)N[C@@H](C)c3nc4cnccc4[nH]3)ccc12 [Compound I-160, 4-ethoxy-2-(4-fluorophenyl)-N-[(1S)-1-(1H-imidazo[4,5-c]pyridin-2-yl)ethyl]quinoline-7-carboxamide]	60	> 100	> 99
CCOc1cc(-c2ccc(OC)nc2C)nc2cc(C(=O)NCCCc3nnc[nH]3)ccc12 [Compound I-138, 4-ethoxy-2-(6-methoxy-2-methylpyridin-3-yl)-N-[3-(4H-1,2,4-triazol-3-yl)propyl]quinoline-7-carboxamide]	89	50 to 100	2
CCOc1cc(-c2ccc(F)cc2)nc2cc(C(=O)NCCc3cn(C)cn3)ccc12 [Compound I-6, 4-ethoxy-2-(4-fluorophenyl)-N-[2-(1-methyl-1H-imidazol-4-yl)ethyl]quinoline-7-carboxamide]	94	50 to 100	1
CC(C)Cc1nc(-c2ccc(Cl)s2)nc2cc(C(=O)NCCCc3ncc[nH]3)ccc12 [Compound I-23, 2-(5-chloro-2-thienyl)-N-[3-(1H-imidazol-2-yl)propyl]-4-isobutylquinazoline-7-carboxamide]	> 99	10 to 50	1
O=C(NCCCc1ncc[nH]1)c1ccc2c(OCC3CC3)nc(-c3ccc(F)cc3)nc2c1 [Compound I-40, 4-(cyclopropylmethoxy)-2-(4-fluorophenyl)-N-[3-(1H-imidazol-2-yl)propyl]quinazoline-7-carboxamide]	> 99	< 10	3
CCOc1cc(-c2ccc(F)cc2)nc2cc(C(=O)NCc3nc4cnccc4n3C)ccc12 [Compound I-178, 4-ethoxy-2-(4-fluorophenyl)-N-[(1-methyl-1H-imidazo[4,5-c]pyridin-2-yl)methyl]quinoline-7-carboxamide]	99	< 10	2
O=C(NCCCc1nnc[nH]1)c1ccc2c(-n3ccnc3)cc(-c3ccc(F)cc3)nc2c1 [Compound I-148, 2-(4-fluorophenyl)-4-(1H-imidazol-1-yl)-N-[3-(4H-1,2,4-triazol-3-yl)propyl]quinoline-7-carboxamide]	99	< 10	1
Cc1nc(-c2ccc(Cl)cc2)nc2cc(C(=O)NCCCc3nnc[nH]3)ccc12 [Compound I-63, N-(3-(4H-1,2,4-triazol-3-yl)propyl)-2-(4-chlorophenyl)-4-methylquinazoline-7-carboxamide]	77	> 100	7
CCOc1cc(-c2ccc(OC)nc2)nc2cc(C(=O)NCCc3[nH]nnc3C)ccc12 [Compound I-88, 4-ethoxy-2-(6-methoxypyridin-3-yl)-N-[2-(4-methyl-1H-1,2,3-triazol-5-yl)ethyl]quinoline-7-carboxamide]	97	10 to 50	1
CCOc1cc(-c2ccc(F)cc2)nc2cc(C(=O)NCCCn3cccn3)ccc12 [Compound I-43, 4-ethoxy-2-(4-fluorophenyl)-N-[3-(1H-pyrazol-1-yl)propyl]quinoline-7-carboxamide]	99	< 10	77
CCOc1cc(-c2cc(C)cnc2OC)nc2cc(C(=O)NCCCc3nnc[nH]3)ccc12 [Compound I-159, 4-ethoxy-2-(2-methoxy-5-methylpyridin-3-yl)-N-[3-(4H-1,2,4-triazol-3-yl)propyl]quinoline-7-carboxamide]	99	10 to 50	2
CCNc1nc(-c2ccc(F)cc2)nc2cc(C(=O)NCCCc3ncc[nH]3)ccc12 [Compound I-41, 4-(ethylamino)-2-(4-fluorophenyl)-N-[3-(1H-imidazol-2-yl)propyl]quinazoline-7-carboxamide]	92	> 100	2
CCCc1cc(OCC)c2ccc(C(=O)NCCCc3ncc[nH]3)cc2n1 [Compound I-226, N-(3-(1H-imidazol-2-yl)propyl)-4-ethoxy-2-propylquinoline-7-carboxamide]	86	> 100	14
CCOc1cc(-c2ccnc(OC)c2)nc2cc(C(=O)NCCCc3cnn[nH]3)ccc12 [Compound I-116, 4-ethoxy-2-(2-methoxypyridin-4-yl)-N-[3-(1H-1,2,3-triazol-5-yl)propyl]quinoline-7-carboxamide]	98	< 10	2
CCOc1cc(-c2cnc(OC)c(F)c2)nc2cc(C(=O)NCCCc3nnc[nH]3)ccc12 [Compound I-89, 4-ethoxy-2-(5-fluoro-6-methoxypyridin-3-yl)-N-[3-(4H-1,2,4-triazol-3-yl)propyl]quinoline-7-carboxamide]	96	10 to 50	2
CCCc1nc(-c2ccc(Cl)cc2)nc2cc(C(=O)NCCCc3nnc[nH]3)ccc12 [Compound I-7, 2-(4-chlorophenyl)-4-propyl-N-[3-(4H-1,2,4-triazol-3-yl)propyl]quinazoline-7-carboxamide]	97	10 to 50	1
CCCc1nc(-c2ccc(Cl)cc2)nc2cc(C(=O)NCCCc3ncc[nH]3)ccc12 [Compound I-4, 2-(4-chlorophenyl)-N-[3-(1H-imidazol-2-yl)propyl]-4-propylquinazoline-7-carboxamide]	99	< 10	1
